Measured values as given in US8974806B2, “Method for producing aqueous active substance compositions of active substances that are hardly soluble in water” (priority 2004, dated 2015).

What was measured:
[1] = test system: Coniophora puteana BAM Ebw. 15; experiment: Agar block method (Bravery test, similar to EN 113) on Southern Yellow Pine wood samples; assay type: cell-based; conditions: C. puteana, 6 weeks, weight loss <3% = sufficient protection
Method: (§1) The activity threshold of the composition according to the invention from example 1 against wood-destroying Basidiomycetes was determined by the agar block method on wood samples from Pinus spp. (Southern Yellow Pine) of the dimensions 40×15×4 mm^3. The test method with wood samples reduced in size, known as bravery test, is very similar to EN 113 and serves to determine the prophylactic action of wood preservatives against wood-destroying fungi (see A. F. Bravery, Intern. Res. Group Wood Pres., Doc. No. IRG/WP/2113, 5S., Stockholm 1978). For comparison, a solution of epoxiconazole in acetone was tested under the same conditions.
(§2) The wood samples impregnated with the composition according to the invention were, with and without leaching stress, tested according to EN 84. The test was carried out using four different active compound concentrations and in each case 5 parallel samples per active compound concentration and test fungus. The test fungi used were Coniophora puteana BAM Ebw. 15, Poria placenta FPRL 280 and Coriolus versicolor CTB 863A. The destruction of the wood caused by the fungal attack was evaluated using the weight loss of the sample woods, which was determined after 6 weeks. If the weight loss is less than 3% by weight, based on the initial dry weight of the test sample, the protection of the wood achieved by the preservative at a certain active compound concentration is considered to be sufficient. The activity concentration threshold is stated in two concentrations.
(§3) The values determined for a solution of the active compound in acetone are shown for comparison.

[2] = test system: Poria placenta FPRL 280; experiment: as above; assay type: cell-based; conditions: P. placenta, 6 weeks, weight loss <3% = sufficient protection
Method: as §1, §2, §3

[3] = test system: wood-destroying soil termites (Reticulitermes santonensis); experiment: Forced termite test on treated Southern Yellow Pine wood samples (AWPA E1-97) after leaching stress (DIN EN 84); assay type: in vivo; conditions: after leaching (DIN EN 84); 4-week test; lower value = wood no longer sufficiently protected, higher value = minimum concentration for complete protection (score 10)
Method: Using water, the aqueous active compound composition according to the invention from example 5 was diluted to three different active compound concentrations. For comparison, α-cypermethrin was dissolved in acetone, and the solution was diluted to the corresponding active compound concentrations using further acetone.
To determine the activity thresholds of the composition according to the invention against wood-destroying soil termites (Reticulitermes santonensis), wood samples from Pinus spp. of the dimensions 25×25×6 mm^3 (Southern Yellow Pine), which met the American test standard AWPA E1-97 (see “Standard method for laboratory evaluation to determine resistance to subterranean termites”, American Wood-Preservers' Association, 2001) were tested in a forced test after leaching stress according to DIN EN 84: 1997-01 (see “accelerated aging of treated wood prior to biological testings”, European Committee for Standardization).
The destruction of the wood caused by the termite attack was, after a 4-week test period, evaluated by visual scoring of the sample woods in accordance with AWPA E1-97. In addition, the mortality rate among the termites was estimated. […]
For the aqueous active compound composition according to the invention, the threshold for α-cypermethrin after leaching was determined to be 9-21 g/m^3. […]

With `Fc1ccc([C@]2(Cn3cncn3)O[C@H]2c2ccccc2Cl)cc1` (racemic) [Solution of epoxiconazole, epoxiconazole] the “Activity thresholds, with leaching” value ([1]; with leaching (EN 84)) was 110-160 g/m^3, the “Activity thresholds, without leaching” value ([1]; without leaching) was under 190 g/m^3 and the “Activity thresholds, with leaching” value ([2]; with leaching (EN 84)) was 110-180 g/m^3. For the same molecule, the “Activity thresholds, without leaching” value ([2]; without leaching) was under 190 g/m^3.
With `CC1(C)C(C=C(Cl)Cl)C1C(=O)OC(C#N)c1cccc(Oc2ccccc2)c1` (stereo not drawn) [α-cypermethrin] the “threshold for α-cypermethrin after leaching” value [3] was “above 21 g/m^3”.
